Assay results taken from ChEMBL document CHEMBL4665641, “Lead optimization and efficacy evaluation of quinazoline-based BET family inhibitors for potential treatment of cancer and inflammatory diseases” (Bioorg Med Chem Lett, 2019).

How the values were obtained:
[1] = test system: MV4-11; experiment: Cytotoxicity against human MV4-11 cells assessed as inhibition of cell viability; assay type: functional, cell-based
[2] = Stability in rat liver microsomes assessed as half life; assay type: ADME, Microsome
[3] = test system: Kasumi 1; experiment: Antitumor activity against human Kasumi-1 cells xenografted in CB17 SCID mouse assessed as inhibition of tumor growth at 40 mg/kg, po QD for 25 days; assay type: functional; details: Kasumi 1, po, 600 h, time 25 day, read-out: TGI
[4] = Cmax in CD-1 mouse at 2 mg/kg, iv measured after 5 mins; assay type: ADME, organism-based; parameters: route intravenous, dose 2 mg/kg; details: in vivo
[5] = molecular target: T1, Bromodomain-containing protein 4 (Homo sapiens, UniProt O60885); experiment: Competitive binding affinity to human partial length BRD4 (BD1,2) (N44 to E460 residues) expressed in bacterial expression system by BROMOscan assay
[6] = test system: Kasumi 1; experiment: Antitumor activity against human Kasumi-1 cells xenografted in CB17 SCID mouse assessed as tumor volume at 10 mg/kg, po QD for 25 days (reference value: 2189 +/- 604 mm3); assay type: functional; details: time 25 day
[7] = Volume of distribution at steady state in CD-1 mouse at 2 mg/kg, iv; assay type: ADME, organism-based; details: in vivo, read-out: Vdss
[8] = test system: Kasumi 1; experiment: Antitumor activity against human Kasumi-1 cells xenografted in CB17 SCID mouse assessed as tumor weight at 10 mg/kg, po administered for 25 days (reference value: 2.57 +/- 0.27 g); assay type: functional; details: time 25 day
[9] = Toxicity in CB17 SCID mouse xenografted with human Kasumi-1 cells assessed body weight loss at 10 to 40 mg/kg, po QD for 25 days; assay type: organism-based; details: in vivo, 600 h, dose 10-40 mg/kg, time 25 day
[10] = test system: Kasumi 1; experiment: Antitumor activity against human Kasumi-1 cells xenografted in CB17 SCID mouse assessed as inhibition of tumor growth at 10 mg/kg, po QD for 25 days; assay type: functional; details: Kasumi 1, po, 600 h, time 25 day, read-out: TGI
[11] = Half life in CD-1 mouse at 10 mg/kg, po; assay type: ADME, organism-based; details: in vivo
[12] = test system: Kasumi 1; experiment: Antiproliferative activity against human Kasumi-1 cells after 72 hrs by Celltiter-Glo assay; assay type: functional, cell-based; details: Kasumi 1, 72 h
[13] = Cmax in CD-1 mouse at 10 mg/kg, po; assay type: ADME, organism-based; parameters: route oral, dose 10 mg/kg; details: CD-1, mouse, in vivo, read-out: Cmax
[14] = Stability in mouse liver microsomes assessed as half life; assay type: ADME, Microsome
[15] = test system: Kasumi 1; experiment: Antitumor activity against human Kasumi-1 cells xenografted in CB17 SCID mouse assessed as tumor weight at 40 mg/kg, po QD for 25 days (reference value: 2.57 +/-0.27 g); assay type: functional; details: time 25 day
[16] = test system: Kasumi 1; experiment: Antitumor activity against human Kasumi-1 cells xenografted in CB17 SCID mouse assessed as tumor volume at 40 mg/kg, po QD for 25 days (reference value: 2189 +/- 604 mm3); assay type: functional; details: time 25 day
[17] = Stability in human liver microsomes assessed as half life; assay type: ADME, Microsome
[18] = Drug uptake in tumor tissue of CB17 SCID mouse xenografted with human Kasumi-1 cells at 10 mg/kg, po QD for 25 days and measured after 24 hrs post last dose; assay type: ADME, organism-based, Neoplasm; details: time 25 day, read-out: Drug uptake
[19] = Half life in CD-1 mouse at 2 mg/kg, iv; assay type: ADME, organism-based; details: in vivo
[20] = Drug uptake in tumor tissue of CB17 SCID mouse xenografted with human Kasumi-1 cells at 40 mg/kg, po QD for 25 days and measured after 24 hrs post last dose; assay type: ADME, organism-based, Neoplasm; details: time 25 day, read-out: Drug uptake
[21] = Plasma clearance in CD-1 mouse at 2 mg/kg, iv; assay type: ADME, organism-based
[22] = molecular target: T1, Bromodomain-containing protein 4; experiment: Inhibition of human full-length recombinant N-terminal His-tagged BRD4 (2 to 1362 residues) expressed in Sf9 cells using histone H4 peptide containing acetylated lysine residues as substrate preincubated with enzyme for 30 mins followed by incubation with substrate for 30 mins by Alphascreen assay […]
[23] = AUC(0 to infinity) in CD-1 mouse at 2 mg/kg, iv; assay type: ADME, organism-based; parameters: time infinity, route intravenous, dose 2 mg/kg; details: CD-1, mouse, in vivo
[24] = AUC(0 to infinity) in CD-1 mouse at 10 mg/kg, po; assay type: ADME, organism-based; parameters: route oral, time infinity, dose 10 mg/kg; details: in vivo
[25] = Oral bioavailability in CD-1 mouse at 10 mg/kg; assay type: ADME, organism-based; details: CD-1, mouse, in vivo
[26] = test system: Kasumi 1; experiment: Antitumor activity against human Kasumi-1 cells xenografted in CB17 SCID mouse assessed as tumor weight at 10 mg/kg, po QD for 29 days (reference value: 2.1+/- 0.3 g); assay type: functional; details: time 29 day
[27] = test system: Kasumi 1; experiment: Antitumor activity against human Kasumi-1 cells xenografted in CB17 SCID mouse assessed as inhibition of tumor growth at 10 mg/kg, po QD for 29 days; assay type: functional; details: Kasumi 1, po, 696 h, time 29 day, read-out: TGI
[28] = test system: Kasumi 1; experiment: Antitumor activity against human Kasumi-1 cells xenografted in CB17 SCID mouse assessed as tumor volume at 10 mg/kg, po QD for 29 days (reference value: 1734 +/- 220 mm3); assay type: functional; details: time 29 day
[29] = test system: Mus musculus; experiment: Antiinflammatory activity in collagen/complete freund's adjuvant-induced arthritis DBA/1 mouse model assessed as IL-6 level in rear right paw at 1 mg/kg, po administered via gavage starting from day 21 to day 41 post collagen/CFA challenge and measured on day 42 measured per mg protein (reference value: 180.7 pg); assay type: functional; details: time 21 day
[30] = test system: Mus musculus; experiment: Antiinflammatory activity in collagen/complete freund's adjuvant-induced arthritis DBA/1 mouse model assessed as VEGF level in rear right paw at 1 mg/kg, po administered via gavage starting from day 21 to day 41 post collagen/CFA challenge and measured on day 42 measured per mg protein (reference value: 0.98 pg); assay type: functional; details: time 21 day
[31] = test system: Mus musculus; experiment: Antiarthritic activity in collagen/complete freund's adjuvant-induced arthritis DBA/1 mouse model assessed as paw thickness at 1 mg/kg, po administered via gavage starting from day 21 to day 41 post collagen/CFA challenge and measured on day 21 by caliper analysis (reference value: 2.48 millimeter); assay type: functional; details: time 21 day
[32] = test system: Mus musculus; experiment: Antiinflammatory activity in collagen/complete freund's adjuvant-induced arthritis DBA/1 mouse model assessed as IL-2 level in rear right paw at 1 mg/kg, po administered via gavage starting from day 21 to day 41 post collagen/CFA challenge and measured on day 42 measured per mg protein (reference value: 0.2 pg); assay type: functional; details: time 21 day
[33] = test system: Mus musculus; experiment: Antiinflammatory activity in collagen/complete freund's adjuvant-induced arthritis DBA/1 mouse model assessed as TNF-alpha level in rear right paw at 1 mg/kg, po administered via gavage starting from day 21 to day 41 post collagen/CFA challenge and measured on day 42 measured per mg protein (reference value: 0.88 pg); assay type: functional; details: time 21 day
[34] = Toxicity in collagen/CFA induced arthritis DBA/1 mouse model assessed as body weight loss at 1 mg/kg, po administered via gavage starting from day 21 to day 41 post collagen/CFA challenge and measured on day 0, 18, 21 followed by three times weekly up to 42 days; assay type: organism-based; details: in vivo, 504 h, time 21 day
[35] = test system: Mus musculus; experiment: Antiinflammatory activity in collagen/complete freund's adjuvant-induced arthritis DBA/1 mouse model assessed as IP-10 level in rear right paw at 1 mg/kg, po administered via gavage starting from day 21 to day 41 post collagen/CFA challenge and measured on day 42 measured per mg protein (reference value: 6.23 pg); assay type: functional; details: time 21 day
[36] = test system: Mus musculus; experiment: Antiinflammatory activity in collagen/complete freund's adjuvant-induced arthritis DBA/1 mouse model assessed as MCP-1 level in rear right paw at 1 mg/kg, po administered via gavage starting from day 21 to day 41 post collagen/CFA challenge and measured on day 42 measured per mg protein (reference value: 126.24 pg); assay type: functional; details: time 21 day
[37] = test system: Mus musculus; experiment: Antiinflammatory activity in collagen/complete freund's adjuvant-induced arthritis DBA/1 mouse model assessed as IL-1 beta level in rear right paw at 1 mg/kg, po administered via gavage starting from day 21 to day 41 post collagen/CFA challenge and measured on day 42 measured per mg protein (reference value: 3.15 pg); assay type: functional; details: time 21 day
[38] = test system: Mus musculus; experiment: Antiinflammatory activity in collagen/complete freund's adjuvant-induced arthritis DBA/1 mouse model assessed as IFN-gamma level in rear right paw at 1 mg/kg, po administered via gavage starting from day 21 to day 41 post collagen/CFA challenge and measured on day 42 measured per mg protein (reference value: 0.78 pg); assay type: functional; details: time 21 day
[39] = Toxicity in collagen/CFA induced arthritis DBA/1 mouse model assessed as body weight at 1 mg/kg, po administered via gavage starting from day 21 to day 41 post collagen/CFA challenge and measured on day 21 relative to initial weight (reference value: 94.96%); assay type: organism-based; details: in vivo, 504 h, time 21 day
[40] = Toxicity in CB17 SCID mouse xenografted with human Kasumi-1 cells assessed body weight loss at 40 mg/kg, po QD for 25 days; assay type: organism-based; details: in vivo, 600 h, time 25 day

Row | SMILES | IC50 [1] | Kd [5] | Activity [6] | Vd [7] | Activity [8] | half-life [11] | Cmax [13] | Activity [15] | Activity [16] | half-life [19] | concentration at 600 h [20] | clearance [21] | IC50 [22] | AUC(0-inf) [23] | Activity [26] | Activity [28] | further results
1 | Cc1noc(C)c1-c1ccc2nc(-c3cnn(CC(C)(C)O)c3)nc(N3CCOC[C@@H]3C3CC3)c2c1 | 1660 nM | 230 nM | 1001 mm3 | 1.28 L/kg | 1.31 g | 1.8 h | 2040 ng/mL | 0.03 g | 51 mm3 | 1.5 h | 4210 ng/g | 10.1 mL/min/kg | 76 nM | 3370 ng·h/mL |  |  | half-life [2]: 0.55 h; inhibition in vivo at 40 mg/kg [3]: 98.8%; Cmax ([4]; mouse, 5 min): 1940 ng/mL; Activity [9]: Non-Toxic; inhibition in vivo at 10 mg/kg [10]: 49.1%; IC50 [12]: 520 nM; t1/2 [14]: 1.7 h; half-life [17]: 1.77 h; concentration at 600 h [18]: 303 ng/g; AUC ([24]; mouse): 15013 ng·h/mL
2 | Cc1cc(-c2ccc3nc(-c4cnn(CC(C)(C)O)c4)nc(N4CCOC[C@@H]4c4ccccc4)c3c2)cn(C)c1=O | 240 nM | 23 nM |  | 0.89 L/kg |  | 2.7 h | 2870 ng/mL |  |  | 2.1 h |  | 3.8 mL/min/kg | 11 nM | 9330 ng·h/mL | 0.73 g | 588 mm3 | Cmax ([4]; CD-1, mouse, read-out: Cmax): 2450 ng/mL; bioavailability [25]: 85%; inhibition in vivo at 10 mg/kg [27]: 65.1%; AUC(0-inf) ([24]; CD-1, mouse): 39800 ng·h/mL
3 | C[C@@H]1C[C@H]2[C@@H]3CCC4=CC(=O)C=C[C@]4(C)[C@@]3(F)[C@@H](O)C[C@]2(C)[C@@]1(O)C(=O)CO [DEXAMETHASONE] |  |  |  |  |  |  |  |  |  |  |  |  |  |  |  |  | Activity [29]: 2.17 pg; Activity [30]: 0.85 pg; Activity [31]: 1.53 mm; Activity [32]: 0.63 pg; Activity [33]: 0.39 pg; Activity [34]: Toxic; Activity [35]: 0.86 pg; Activity [36]: 1.99 pg; Activity [37]: 2.32 pg; Activity [38]: 1.5 pg; Activity [39]: 92.74%
4 | CCNC(=O)C[C@@H]1N=C(c2ccc(Cl)cc2)c2cc(OC)ccc2-n2c(C)nnc21 [MOLIBRESIB] |  |  | 586 mm3 |  | 0.52 g |  |  | 0.07 g | 79 mm3 |  | 16 ng/g |  |  |  | 0.3 g | 330 mm3 | Activity [40]: Toxic
